Results: patent US12590100B2, “Tetrahydro-spiroindoline-pyrrolopyrrole-triones inhibitors of the NRF2-β-TrCP interaction for use in the treatment of fatty liver disease” (Universidad Autonoma De Madrid, priority 2021, dated 2026)

Tests used:
NRF2 = experiment: NRF2/HO-1 induction in Keap1−/− versus Keap1+/+ MEFs; assay type: cell-based, mouse; conditions: PHAR 10 μM, 8 h
Experimental: FIG. 5. PHAR-mediated NRF2 activation is independent of KEAP1 and is responsible for the increase in the expression of its targets. (A-D) Serum-deprived MEFs originating from wild-type (WT) or KEAP1 null (Keap1−/−) mice were treated with 10 μM of PHAR for the indicated times. 0.1% DMSO was used as a vehicle. A), representative immunoblots of NRF2, HO1, KEAP1, LAMINB, and GAPDH as loading controls. B) and C), densitometric analysis of NRF2 and HO1 protein levels of the representative immunoblots of (A), expressed as a ratio of NRF2/LAMINB or HO1/GAPDH. The data is depicted as means±SEM (n=3). Statistical analysis was performed with two-way ANOVA followed by the Bonferroni test to check inter-group differences. D), the mRNA levels of Hmox-1, Nqo1, Aox1, Gc1c, and Gc1m were determined after 8 h of 10 μM PHAR by means of qRT-PCR and normalized by means of average Gapdh, Tbp, and β-actin. The data is depicted as mean±SEM (n=3). […] F) and G), densitometric analysis of NRF2 and HO1 protein levels of the representative immunoblots of (E), expressed as a ratio of NRF2/LAMINB or HO1/GAPDH. […] H), the mRNA levels of Hmox-1, Nqo1, Aox1, Gclc, and Gclm were determined after 8 h of 10 μM PHAR by means of qRT-PCR and normalized by means of average Gapdh, Tbp, and β-actin. […]

[1] = tested on: peritoneal macrophages (Nrf2+/+); experiment: Inflammatory response in LPS-stimulated peritoneal macrophages from Nrf2+/+ mice; assay type: cell-based, mouse; conditions: PHAR 10 μM 8 h, LPS 100 ng/ml 4 h
Experimental: FIG. 8. PHAR reduces inflammatory response in peritoneal macrophages originating from Nrf2^+/+ mice but not in peritoneal macrophages originating from LPS-stimulated Nrf2-4KI mice. Peritoneal macrophages originating from wild-type (WT) and serum-deprived NRF2 knock-in (Nrf2-4Ki) mice were pretreated with 10 μM of PHAR for 8 h. 0.1% DMSO was used as a vehicle. After that period of time, the cells were treated with 100 ng/ml of LPS for 4 h. A), representative immunoblots originating from both cell types of NRF2, HO1, pre-IL1β, COX2, NOS2, and GAPDH as a loading control. B), densitometric analysis of NRF2 and HO1 protein levels of the representative immunoblots of (A), expressed as a ratio of protein/GAPDH levels. The data is depicted as means±SEM (n=3). Statistical analysis was performed with two-way ANOVA followed by the Bonferroni test to compare inter-group differences. *p<0.05; **p<0.01; ***p<0.001 vs. LPS. C), Densitometric analysis of pre-IL1b, COX2, and NOS2 protein levels of the representative immunoblots of (A), expressed as a ratio of protein/GAPDH levels. The data is depicted as means±SEM (n=3). […] D), the mRNA levels of Hmox1, Il1 β, Cox2, Nos2, Il6, and Tnfα were determined by means of qRT-PCR and normalized by means of average Gapdh, Thp, and β-actin. […]

O=C1[C@@H]2[C@H](Cc3c[nH]c4ccccc34)N[C@]3(C(=O)Nc4ccc(Cl)cc43)[C@@H]2C(=O)N1c1ccc2c(c1)OCCO2 [PHAR]
mRNA levels of other NRF2 targets in Keap1−/− compared with Keap1+/+ MEFs (NRF2): The same result was obtained
NRF2 and HO-1 protein levels [1]: significant increase in NRF2 and HO-1 protein levels
production of inflammatory markers, protein (pre-IL1β, COX2, NOS2) and mRNA (Il1β, Cox2, Nos2, Il6, Tnfα) [1]: significantly lower
